This note sets out measurements from patent US7064236B2, “Substituted 1-aryl-but-3-enylamine and 1-aryl-but-2-enylamine compounds” (Grunenthal GmbH, priority 2001, dated 2006).

The experiment relates to phenylquinone-induced writhing in mice. Put plainly: Analgesic testing by phenylquinone-induced writhing test in mice. The conditions noted are these: 10 min, mouse, phenylquinone i.p. 10 minutes after compound, read-out: % Inhibition of writhing reaction; for inhibition in vivo at 10 mg/kg: 10 mg/kg intravenous. The format is in vivo, mouse (male NMRI mice). The method, then: Analgesic Testing by Writhing Test in Mice
The investigation into analgesic efficacy was performed by phenylquinone-induced writhing in mice (modified after: I. C. Hendershot and J. Forsaith (1959) J. Pharmacol. Exp. There. 125, 237–240). Male NMRI mice weighing from 25–30 g were used for this purpose. 10 minutes after intravenous administration of the test compounds, groups of 10 animals per dose of a compound received 0.3 ml/mouse of a 0.02% aqueous solution of phenylquinone (phenylbenzoquinone, sigma, Deisenhofen; production of the solution with addition of 5% ethanol and storage in water bath at 45° C.), administered intraperitoneally. The animals were placed individually in observation cages. A push button counter was used to record the number of pain-induced stretching movements (writhing reactions=straightening of the torso with stretching of the rear extremities) for 5–20 minutes after phenylquinone administration. The control was provided by animals who received only physiological common salt solution. All the compounds were tested at the standard dosage of 10 mg/kg. The percentage inhibition (%inhibition) of the writhing reaction by a compound of the general formula I according to the invention was calculated according to the following formula: […]
The in-depth investigation of the compounds of the general formula I according to the invention for analgesic efficacy was performed by phenylquinone-induced writhing in mice, as described above.
(In writhing tests, fewer writhes than in controls are read as antinociception.)

SMILES strings stand for the structures. Counter-ions that a name gives are not always drawn.

For `CN(C)C(C1=C(Cc2ccccc2F)CCCC1)c1ccccc1` (stereo not drawn) [Example 19, {[2-(2-Fluoro-benzyl)-cyclohex-1-enyl)-phenyl-methyl}-dimethyl-amine hydrochloride], the inhibition in vivo at 10 mg/kg was found to be 87%.

Regarding `CN(C)C(C1=C(Cc2ccccc2Cl)CCCC1)c1ccccc1` (stereo not drawn) [Example 20, {[2-(2-Chloro-benzyl)-cyclohex-1-enyl]-phenyl-methyl}-dimethyl-amine hydrochloride], the inhibition in vivo at 10 mg/kg was 63%.

Regarding `CN(C)C(C1=C(Cc2cccc(F)c2)CCCC1)c1ccccc1` (stereo not drawn) [Example 21, {[2-(3-Fluoro-benzyl)-cyclohex-1-enyl)-phenyl-methyl}-dimethyl-amine hydrochloride], the inhibition in vivo at 10 mg/kg came out at 67%.

With `CN(C)C(C1=C(Cc2cccc(C(F)(F)F)c2)CCCC1)c1ccccc1` (stereo not drawn) [Example 22, Dimethyl-{phenyl-[2-(3-trifluoromethyl-benzyl)-cyclohex-1-enyl]-methyl}-amine hydrochloride], the inhibition in vivo at 21.5 mg/kg (21.5 mg/kg intravenous) stood at 46%.

Take `CN(C)C(C1=C(CCc2ccccc2)CCCC1)c1ccccc1` (stereo not drawn) [Example 23, Dimethyl-[(2-phenethyl-cyclohex-1-enyl)-phenyl-methyl]-amine hydrochloride]: the inhibition in vivo at 10 mg/kg is 67%.

As for `CN(C)C(c1ccccc1)C1CCCC=C1c1cccc(O)c1` (stereo not drawn) [Example 24, 3-[6-(dimethylamino-phenyl-methyl)-cyclohex-1-enyl]-phenol hydrochloride], the inhibition in vivo at 10 mg/kg turned out to be 76%.

Regarding `COc1ccc(C2=CCCCC2C(c2ccccc2)N(C)C)cc1` (stereo not drawn) [Example 27, {[2-(4-methoxy-phenyl)-cyclohex-2-enyl]-phenyl-methyl}-dimethylamine hydrochloride], the inhibition in vivo at 10 mg/kg turned out to be 47%.

As for `CN(C)C(C1=C(c2ccc(Cl)cc2)CCCC1)c1ccccc1` (stereo not drawn) [Example 28, {[2-(4-Chloro-phenyl)-cyclohex-1-enyl]-phenyl-methyl}-dimethyl-amine hydrochloride], the inhibition in vivo at 10 mg/kg came out at 71%.

Regarding `CN(C)C(C1=C(c2ccccc2)CCCC1)c1ccc(C(F)(F)F)cc1` (stereo not drawn) [Example 29, Dimethyl-[(2-phenyl-cyclohex-1-enyl)-(4-trifluoromethyl-phenyl)-methyl]-amine hydrochloride], the inhibition in vivo at 10 mg/kg worked out at 40%.
